Some test systems named below: OVCAR-8; NCI-H460; HCT-116; NCI-H226; MOLT-4; LOX IMVI; K562; SNB-19; T47D; SK-OV-3; PC-3; OVCAR-5; 786-0; SF-268; TK-10; SF-539; RXF 393; UACC-62; HT-29; CCRF-CEM.
Holding throughout (assay): DTP human tumour cell line panel, 48 h

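Interpolation was linear, between the two tested concentrations surrounding the appropriate level; five concentrations were tested over 48 hours in 96-well plates. The concentration for 50% growth inhibition is given as GI50.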 Activity calls are given as the source filed them. Rule as the data show it: active = GI50 up to about 1.1 µM and inactive = higher.

Broadly, the GI50 is the concentration that inhibits growth by half. With `COc1cc2c(cc1OCCCCCCCCCCN1C(=O)c3cccc4cccc(c34)C1=O)N=C[C@@H]1CCCN1C2=O`, the GI50 in the experiment with OVCAR-8 was 4.95 µM (inactive); in the experiment on NCI-H460 it was 19.9 µM (inactive); in the experiment on HCT-116, 5.52 µM (inactive); with NCI-H226, 1.72 µM (inactive); in the experiment with MOLT-4 it was 2.41 µM (inactive); in the experiment on LOX IMVI, 2.14 µM (inactive). For the same molecule, the GI50 in the experiment with K562 is 5.26 µM (inactive); with SNB-19, 13.7 µM (inactive); in the experiment with T47D it was 4.41 µM (inactive); with SK-OV-3, 6.68 µM (inactive); in the experiment on PC-3, 3.13 µM (inactive); in the experiment with OVCAR-5 it was 25.8 µM (inactive). Further, the GI50 was 9.06 µM (inactive) with 786-0; 8.51 µM (inactive) with SF-268; 13.5 µM (inactive) in the experiment with TK-10; 1.55 µM (inactive) with SF-539; 3.85 µM (inactive) in the experiment with RXF 393; 12.2 µM (inactive) with UACC-62. The GI50 in the experiment on HT-29 is 6.76 µM (inactive); in the experiment with CCRF-CEM it was 1.94 µM (inactive).

On to `CSc1c(C#N)c(S)n(-c2ccc(Cl)cc2)c(=O)c1C#N`, for which the GI50 in the experiment with OVCAR-8 was 74.1 µM (inactive); with NCI-H460 it was > 100 µM (inactive); in the experiment with HCT-116 it was 45.4 µM (inactive); with NCI-H226, 48.9 µM (inactive); with MOLT-4, 44.2 µM (inactive); with LOX IMVI it was > 100 µM (inactive). In addition, the GI50 is 63 µM (inactive) in the experiment on K562; > 100 µM (inactive) with SNB-19; 47.5 µM (inactive) with T47D; > 100 µM (inactive) in the experiment with SK-OV-3; 76.9 µM (inactive) in the experiment with PC-3; > 100 µM (inactive) in the experiment on OVCAR-5. For the same molecule, the GI50 in the experiment with 786-0 is > 100 µM (inactive); in the experiment on SF-268 it was > 100 µM (inactive); in the experiment with TK-10 it was > 100 µM (inactive); in the experiment on SF-539, > 100 µM (inactive); with RXF 393, 93.3 µM (inactive); in the experiment with UACC-62, 51.2 µM (inactive). Moreover, the GI50 in the experiment with HT-29 is 99.3 µM (inactive); in the experiment on CCRF-CEM, 32.5 µM (inactive).

Consider `CC(NC1=CC(=O)c2ncccc2C1=O)C(O)c1ccccc1` (stereo not given), for which the GI50 was 4.37 µM (inactive) in the experiment on OVCAR-8; 1.28 µM (inactive) in the experiment on NCI-H460; 3.6 µM (inactive) in the experiment on HCT-116; 5.55 µM (inactive) in the experiment with NCI-H226; 8.63 µM (inactive) with MOLT-4; 1.8 µM (inactive) in the experiment with LOX IMVI. The GI50 was 2.04 µM (inactive) in the experiment on K562; 6.35 µM (inactive) in the experiment on SNB-19; 21.5 µM (inactive) in the experiment on T47D; 16.1 µM (inactive) with SK-OV-3; 12.1 µM (inactive) in the experiment with PC-3; 15.5 µM (inactive) with OVCAR-5. Besides, the GI50 in the experiment on 786-0 is 8.69 µM (inactive); in the experiment on SF-268, 12.2 µM (inactive); in the experiment with TK-10, 38 µM (inactive); in the experiment with SF-539, 6.04 µM (inactive); in the experiment with RXF 393, 7.76 µM (inactive); in the experiment on UACC-62, 2.02 µM (inactive). For the same molecule, the figures for the GI50 with HT-29 and in the experiment with CCRF-CEM were 11.5 µM (inactive) and 5.75 µM (inactive), respectively.

Take `CCCn1c2ccccc2c2ccc3c(c21)C(=O)C=CC3=O`: the GI50 in the experiment with OVCAR-8 was 2.54 µM (inactive); in the experiment on NCI-H460, > 10 µM (inactive); in the experiment with HCT-116 it was 1.63 µM (inactive); in the experiment with NCI-H226, 6.38 µM (inactive); in the experiment with MOLT-4, 0.904 µM (active); in the experiment on LOX IMVI it was > 10 µM (inactive). The GI50 was 0.561 µM (active) in the experiment on K562; > 10 µM (inactive) with SNB-19; 2 µM (inactive) in the experiment on T47D; > 10 µM (inactive) in the experiment on SK-OV-3; 3.54 µM (inactive) with PC-3; > 10 µM (inactive) with OVCAR-5. In addition, the GI50 in the experiment with 786-0 was 1.84 µM (inactive); in the experiment with SF-268, > 6.12 µM (inactive); with TK-10 it was 2.09 µM (inactive); in the experiment on SF-539, > 4.8 µM (inactive); in the experiment with RXF 393, 2.1 µM (inactive); with UACC-62, 4.13 µM (inactive). Besides, the GI50 in the experiment on HT-29 is > 10 µM (inactive); in the experiment on CCRF-CEM, 0.204 µM (active).

As to `Cc1cn(C2CC(N=[N+]=[N-])C(CO)O2)c(=O)n(CCCCO)c1=O` (stereo not given), the GI50 with OVCAR-8, with NCI-H460, with HCT-116, in the experiment on NCI-H226, in the experiment on MOLT-4 and in the experiment with LOX IMVI was > 100 µM (inactive) in each case. In addition, the GI50 with K562, in the experiment on SNB-19, with T47D, in the experiment with SK-OV-3, in the experiment on PC-3 and in the experiment on OVCAR-5 was > 100 µM (inactive) each time. Besides, the GI50 with 786-0, with SF-268, in the experiment with TK-10, in the experiment with SF-539, in the experiment on RXF 393 and with UACC-62 was > 100 µM (inactive) each time. In addition, the GI50 in the experiment on HT-29 and with CCRF-CEM was > 100 µM (inactive) in each case.

Turning to `COC(=O)C(Cc1c(-c2[nH]c3ccccc3c2CC(NC(C)=O)C(=O)OC)[nH]c2ccccc12)NC(C)=O` (stereo not given), the GI50 in the experiment on OVCAR-8, with NCI-H460, in the experiment with HCT-116, in the experiment with NCI-H226, in the experiment with MOLT-4 and in the experiment on LOX IMVI was > 100 µM (inactive) in each case. In addition, the GI50 with K562, in the experiment on SNB-19, with T47D, with SK-OV-3, in the experiment with PC-3 and with OVCAR-5 was > 100 µM (inactive) throughout. Also, the GI50 with 786-0, in the experiment with SF-268, in the experiment with TK-10, in the experiment on SF-539, with RXF 393 and with UACC-62 was > 100 µM (inactive) throughout. Besides, the GI50 in the experiment on HT-29 and in the experiment with CCRF-CEM was > 100 µM (inactive) throughout.

Regarding `Nc1nccc(Nc2ccc(S(N)(=O)=O)cc2)n1`, the GI50 in the experiment on OVCAR-8 was > 100 µM (inactive); in the experiment on NCI-H460, > 100 µM (inactive); in the experiment on HCT-116, > 100 µM (inactive); with NCI-H226, 35.2 µM (inactive); with MOLT-4, > 100 µM (inactive); with LOX IMVI, > 100 µM (inactive). Also, the GI50 in the experiment on K562, with SNB-19, in the experiment on T47D, in the experiment with SK-OV-3, with PC-3 and with OVCAR-5 was > 100 µM (inactive) each time. The GI50 in the experiment on 786-0, in the experiment with SF-268, in the experiment with TK-10, in the experiment with SF-539, with RXF 393 and with UACC-62 was > 100 µM (inactive) in each case. Also, the GI50 in the experiment with HT-29 and with CCRF-CEM was > 100 µM (inactive) in each case.

(Values after ChEMBL document CHEMBL1201862, “PubChem BioAssay data set” (2004).)
